Assay type in all cases: cell-based, human
For experiment [1], the system named is MUC16-positive OVCAR3 ovarian cancer cells. Kind of experiment: Viable cell number by trypan blue staining, OVCAR3 cells. As to conditions: OVCAR3, 5 microM, 5 days, vs control. The protocol: (§1) FIG. 1 illustrates the Effects of MUC16 Inhibitor Peptide (IP-16) on MUC16-positive cancer cells. Human MUC16-positive OVCAR3 ovarian cancer (A), MIAPACA2 pancreatic cancer (B) and ASPC1 pancreatic cancer (C) cells were left untreated (Control) or treated with 5 microM IP-16(RRRRRRRR-CLICGVLVTTRRRKK; SEQ ID NO:5) or CP-16 (RRRRRRRR-ALIAGVLVTTRRRKK; SEQ ID NO:6) for 5 days. Viable cell number was determined by trypan blue staining. The results are expressed as cell number (mean+SD of three determinations).
(§2) Viable cell number was determined by trypan blue staining.

The subject of experiment [2] is MUC16-positive MIAPACA2 pancreatic cancer cells. Kind of experiment: Viable cell number by trypan blue staining, MIAPACA2 cells. Conditions: MIAPACA2, 5 microM, 5 days, vs control. The protocol: as §1, §2
Experiment [3] concerns MUC16-positive ASPC1 pancreatic cancer cells. The experiment in a line: Viable cell number by trypan blue staining, ASPC1 cells. Conditions: ASPC1, 5 microM, 5 days, vs control. The protocol:
as §1, §2

Experiment [4] deals with MUC16-negative HEK293T cells. The experiment in a line: Growth of MUC16-negative control cells.

In the case of “RRRRRRRR-CLICGVLVTTRRRKK (RRRRRRRRCLICGVLVTTRRRKK) [IP-16]”, the “cell number (viable cells)” value in experiment [1], in experiment [2] and in experiment [3] was “significantly reduced” each time. Besides, in experiment [4], the effect on growth entry is “little, if any, effect”.

The values are drawn from US9663562B2, “Compositions and methods for treating cancer” (Dana-Farber Cancer Institute, Inc., priority 2013, dated 2017).
